Results on 2 compounds are retold here after article PMC6158189, “A pharmacological probe identifies cystathionine β-synthase as a new negative regulator for ferroptosis” (Cell Death & Disease, 2018).

In data set [1] the target is T1, endogenous hCBS in HepG2 cells (Homo sapiens, UniProt P35520).
T1 construct: effects of CH004 on the activity of endogenous CBS by incubating with HepG2; endogenous in cells; host or cells: HepG2
T1 sequence (P35520 1-551): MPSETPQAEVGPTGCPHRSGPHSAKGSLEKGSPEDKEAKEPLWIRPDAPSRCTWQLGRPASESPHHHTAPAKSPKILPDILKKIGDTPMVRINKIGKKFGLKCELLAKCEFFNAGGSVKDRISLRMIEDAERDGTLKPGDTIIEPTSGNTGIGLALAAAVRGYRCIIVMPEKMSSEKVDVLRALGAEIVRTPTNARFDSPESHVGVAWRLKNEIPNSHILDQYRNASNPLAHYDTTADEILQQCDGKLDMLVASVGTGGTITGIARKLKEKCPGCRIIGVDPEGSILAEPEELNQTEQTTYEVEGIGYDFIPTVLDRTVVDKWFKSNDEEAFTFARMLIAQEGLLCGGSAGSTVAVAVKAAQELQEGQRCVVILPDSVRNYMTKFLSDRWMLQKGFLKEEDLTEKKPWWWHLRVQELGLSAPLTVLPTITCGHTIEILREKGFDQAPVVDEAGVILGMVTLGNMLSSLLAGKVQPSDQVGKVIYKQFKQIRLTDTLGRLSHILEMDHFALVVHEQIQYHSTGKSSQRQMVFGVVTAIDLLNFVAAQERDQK
The experiment in a line: endogenous H2S in HepG2 cells (AzMC probe). Format: cell-based. The note with it: 8 h, HepG2. Here is the method:
Fig. 3 The effect of CH004 on the activity of endogenous hCBS in cells. a CH004 dose-dependently elevates the levels of Hcys in HepG2 and HEK293T cells. HepG2 cells or HEK293T cells were incubated with indicated CH004 or DMSO (control) for 12 h. The amount of total Hcys in cells was measured by ELISA using Axis® Homocysteine EIA kit (IBL, AX51301) (“Materials and Methods” section). […] HepG2 cells were treated with indicated DMSO, CH004 or HA for 8 h before the staining with AzMC probe. The amount of the H2S (blue) was quantified and is shown in (c). Bars, 50 μm. Control (CTR), DMSO group (100%). A representative fluorescence image from three independent experiments is shown. Means ± SDS (n = 3). d CH004 elevates Hcys in the peripheral blood of rats. The total Hcys of the blood samples collected from the anesthetized rats at the 75 min time point (Materials and Methods) were quantified by ELISA (see above). Means ± SDS (n = 6).
(§1) H2S levels in living cells were detected using a H2S-specific fluorescent probe according to a protocol described previously[31],[55]. To measure H2S in transiently transfected HEK293T cells, the cells were seeded on poly-D-Lys-coated coverslips (Thermo Scientific, Waltham, MA, USA) in 12-well plates at a density of ~ 1 × 10^5 cells per well, and hCBS or hCSE plasmids were transiently transfected by X-tremeGENE HP DNA Transfection Reagent according to the manufacturer’s protocol (Roche, Basel, Switzerland). After 24 h, the transfected cells were treated with DMSO or inhibitors for another 8 h, followed by staining with 7-azide-4-methylcoumarin (AzMC; Sigma-Aldrich). Similarly, HEK293T cells stably expressing CBS WT, Q222A mutant or EV were seeded on poly-D-Lys-coated coverslips in 12-well plates for one day before treatment with DMSO or inhibitors for 8 h. After incubation with 50 μM AzMC at 37 °C for 30 min, the cells were washed 4 times with PBS, and the fluorescent images were recorded with excitation by 405 nm laser by using a A1Si (Nikon) confocal microscope. The intensity of the blue fluorescent signals, indicating the amount of H2S, was quantified by ImageJ software (NIH, Bethesda, ML). The H2S signal was then corrected for the background signal detected in HEK293T cells transiently or stably expressing of empty vector (HEK293T-EV) and normalized by the corresponding cell-occupying area and compared with the control (DMSO group, 100%). Similarly, the H2S signal in HepG2 cells was quantified by AzMC staining, corrected for the background signal outside the cells, normalized by the cell area and expressed as percentages of DMSO control (100%).
To elucidate the subcellular localization of H2S, HepG2 cells were seeded on poly-D-Lys-coated coverslips in 12-well plates. After treatment with DMSO or inhibitors for 8 h, cells were sequentially incubated with 200 nM Mito-Tracker® Green and 50 μM AzMC for 30 min at 37 °C in PBS, and then fluorescent images were taken using a confocal microscope.
Figure S9. The effect of AOAA on the level of endogenous H2S in HepG2 cells. […] HepG2 cells were incubated with 0 (DMSO control), 1, 5 or 10 mM AOAA for 8 h before staining with 50 μM AzMC. Upper panels, the overlaid images; middle panels, the corresponding fluorescent images (blue, H2S); the lower panels, the bright-field images. Bars: 50 μm. (B) Quantification of the mean fluorescent density of H2S (blue). The intensity of H2S was accordingly quantified and normalized by correcting for the background signal outside cells. Data was expressed as percentages of the control (DMSO group, 100%). Means ± SDs (n=3). One-way ANOVA with Bonferroni post-tests was used for the analysis. *, p< 0.05; ***, p< 0.001; n.s. no significance. The images are one representative from three independent experiments.

For data set [2], the target named is T2, hCBS-FL wild type (293T-CBS WT) (Homo sapiens, UniProt P35520).
T2 construct: human CBS or hCSE full-length (CBS-FL or CSE) was subcloned into pGEX-KG, pcDNA3 or pCDH vector; expressed in transfected cells
T2 sequence (P35520 1-551): T1 sequence (P35520 1-551)
The experiment in a line: H2S in HEK293T cells stably expressing hCBS WT (AzMC probe). The following applies: 8 h. The format is cell-based. As to the method:
HEK293T cells were transiently transfected with empty vector (EV, i and ii), hCBS-FL (iii and iv) or hCSE (v and vi) plasmids, followed by incubation with DMSO (i–iii and v) or 10 μM CH004 (iv and vi) for 8 h before staining with 50 μM AzMC, a H2S-specific probe (“Materials and Methods” section). For larger fluorescent and bright-field images, please see Supplementary Figure 4. The expression levels of hCBS or hCSE in HEK293T cells after transient transfections were determined by western blotting using an anti-CBS antibody (3E1, 1:2000; Abnova) or anti-CSE antibody (1:500, GeneTex). The densities of protein bands for hCBS or hCSE in the blots were quantified with the ImageJ software (National Institutes of Health, Bethesda, MD, USA) and expressed as ratios of respective control (EV group). All immunoblots are representative of at least two independent experiments using GAPDH as the loading control. The fluorescent images of the H2S (blue) were accordingly quantified (“Materials and Methods” section) with ImageJ. […] The DMSO groups of the controls (CTR), which are expressing of hCBS or hCSE, were normalized to 100% and the levels of H2S in CH004-treated or EV group are shown as relative percentages. c, d CH004 dose-dependently suppresses the activity of hCBS WT without affecting the activity of CH004-insensitive mutant. HEK293T cells stably expressing EV (i and ii), hCBS-FL wild type (293T-CBS WT; iii–v) or CBS-FL mutant (293T-CBS Q222A, vi–viii) were treated with DMSO (i–iii and vi), 5 μM CH004 (iv, vii) or 10 μM CH004 (v, viii) for 8 h before staining with the AzMC. For larger fluorescent and bright-field images, please see Supplementary Figures 5–6. […] The DMSO groups of the controls (CTR), which are expressing of hCBS-FL wt or Q222A mutant, were normalized to 100% and the levels of H2S in CH004-treated or EV group are shown as relative percentages. A representative fluorescence image from three independent experiments is shown. Means ± SDS (n = 3). Statistical analyses were performed on the raw data for each group by one-way (b) or two-way (d) ANOVA with Bonferroni post-tests. ***p < 0.001. Bars, 50 μm
as §1, with “After 24 h, the transfected cells were treated with DMSO or inhibitors for another 8 h, followed by staining with 7-azide-4-methylcoumarin (AzMC; Sigma-Aldrich). Similarly, HEK293T cells stably expressing CBS WT, Q222A mutant or EV were seeded on poly-D-Lys-coated coverslips in 12-well plates for one day before treatment with DMSO or inhibitors for 8 h.” left out, “(100%). […]” for “(100%).”

Data set [3] relates to H22 mouse liver tumor cells in ICR mice. The note with it: 20 mg/kg/day i.v. Here is the method: Fig. 7 CH004 suppresses tumor growth in vivo. a–c CH004 reduces the growth rate of tumors in liver tumor xenograft mice model. Mice bearing liver tumor xenografts were treated with CH004 (10 mg/kg/d), cyclophophamide (CTX, 20 mg/kg/d) or PBS (Vehicle) for 21 days. The tumor volumes were measured every two days during day 6 to day 22 and the data was presented in a (n = 8). […] Mice body weight was measured along with the measurement of tumor volume (n = 8). Means ± SDS. Statistical analyses were performed on the raw data by one-way (c) or two-way ANOVA (a) with Bonferroni post-tests. The significance of the CH004-treated group compared to Vehicle was indicated with $ (a), whereas the comparison of the CTX group to Vehicle was with # (a). $, # or ***p < 0.001
The in vivo effect of CH004 on tumor growth was evaluated in a xenograft mice model of liver cancer. The experiment was independently performed by Jiangsu KeyGEN BioTECH Co. LTD (Jiangsu, China) and followed the standard procedures that were established and approved by the local Animal Care and Use Committee. Briefly, H22 mouse liver tumor cells were intraperitoneal injected into female ICR mice (SLAC Laboratory Animal Co. Ltd, Shanghai, China). 8 days later, mice with distended abdomen were killed, and the ascites was collected, washed and resuspended with PBS. 0.1 ml cell suspension with a density of 1 × 10^7/ml was subcutaneously injected into the right dorsum of ICR female mice (~20 g). The mice bearing H22 tumor cells were then randomized into groups (n = 8) on the following day after the implantation. Then, the mice were injected via a tail vein (i.v.) with PBS, CH004 (10 mg/kg) or cyclophosphamide (CTX, a known anticancer drug; 20 mg/kg) once per day and for 21 days. Tumor sizes were measured every 2 days starting from the day 6 using a caliper, and tumor volume was calculated using the formula V = length × width^2 × π / 6. The body weights of mice were recorded under the same conditions. The mice were sacrificed on day 22, and the tumors were taken out and weighted.

Where only a bound is given, the exact number is not on record here.

On to `NOCC(=O)O` [AOAA, aminooxyacetic acid, reference compound], for which the “effect on production of H2S” value in data set [1] (1 mM) is recorded as “cannot suppress”; in data set [2] (1 mM, HEK293T stably expressing hCBS), “cannot suppress”. Moreover, the “decrease in cellular H2S” value is no more than 30% in data set [1] (10 mM) and no more than 30% in data set [2] (10 mM, HEK293T stably expressing hCBS). Also, the “production of endogenous H2S” value in data set [1] (1, 5 or 10 mM) is listed as “impotently decreases”. Further, the H2S production result in data set [2] (1, 5 or 10 mM, 293T-CBS WT) was “weakly inhibits”.
In the case of `O=P1(N(CCCl)CCCl)NCCCO1` (centres unmarked) [CTX, cyclophosphamide, reference compound], the “reduction of tumor volume or weight” value in data set [3] (21-day treatment) was “more than half”. The “effect on total body weight” value in data set [3] (21 days) is “did not substantially affect”.
